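These data come from cells grown in 96-well plates and exposed to compound for 48 hours at five concentrations. TGI is the concentration that stops growth completely.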
Columns and labels:
Assay in all cases: NCI tumour cell line growth inhibition, 48 h
[1] = system: A498 renal
[2] = system: A549 NSCLC
[3] = system: CAKI-1 renal
[4] = system: CCRF-CEM leukemia
[5] = system: COLO 205 colon
[6] = system: DLD-1 colon
[7] = system: DMS 114 small cell lung
[8] = system: DMS 273 small cell lung
[9] = system: EKVX NSCLC
[10] = system: HCC-2998 colon
[11] = system: HCT-116 colon
[12] = system: HCT-15 colon
[13] = system: HL-60(TB) leukemia
[14] = system: HOP-18 NSCLC
[15] = system: HOP-62 NSCLC
[16] = system: HOP-92 NSCLC
[17] = system: HT29 colon
[18] = system: IGROV1 ovarian
[19] = system: K-562 leukemia
[20] = system: KM12 colon
[21] = system: KM20L2 colon
[22] = system: LOX IMVI melanoma
[23] = system: M19-MEL melanoma
[24] = system: MALME-3M melanoma
[25] = system: MCF7 breast
[26] = system: MOLT-4 leukemia
[27] = system: NCI-H226 lung
[28] = system: NCI-H23 lung
[29] = system: NCI-H460 lung
[30] = system: NCI-H522 lung
[31] = system: NCI/ADR-RES ovarian
[32] = system: OVCAR-3 ovarian
[33] = system: OVCAR-4 ovarian
[34] = system: OVCAR-5 ovarian
[35] = system: OVCAR-8 ovarian
[36] = system: P388 leukemia
[37] = system: P388/ADR leukemia
[38] = system: RPMI-8226 leukemia
[39] = system: RXF 393 renal
[40] = system: SF-268 CNS
[41] = system: SF-295 CNS
[42] = system: SF-539 CNS
[43] = system: SK-MEL-2 melanoma
[44] = system: SK-MEL-28 melanoma
[45] = system: SK-MEL-5 melanoma
[46] = system: SK-OV-3 ovarian
[47] = system: SN12C renal
[48] = system: SN12K1 renal
[49] = system: SNB-19 CNS
[50] = system: SNB-75 CNS
[51] = system: SNB-78 CNS
[52] = system: SW-620 colon
[53] = system: U251 CNS
[54] = system: UACC-257 melanoma
[55] = system: UACC-62 melanoma
[56] = system: UO-31 renal
[57] = system: XF 498 CNS

**Q.** What does the source list for COC(=O)C1=CC[C@@H]2C(C(=O)O)=CO[C@@H](OC3OC(CO)C(O)C(O)C3O)[C@H]12 (some centres not stated)?
**A.** TGI [1]: > 30 µM; TGI [2]: > 300 µM; TGI [3]: > 300 µM; TGI [4]: > 119 µM; TGI [5]: > 300 µM; TGI [6]: > 189 µM; TGI [7]: > 300 µM; TGI [8]: > 300 µM; TGI [9]: > 300 µM; TGI [10]: > 300 µM; TGI [11]: > 300 µM; TGI [12]: > 300 µM; TGI [13]: > 300 µM; TGI [14]: > 300 µM; TGI [15]: > 300 µM; TGI [16]: > 127 µM; TGI [17]: > 300 µM; TGI [18]: > 300 µM; TGI [19]: > 300 µM; TGI [20]: > 300 µM; TGI [21]: > 300 µM; TGI [22]: > 300 µM; TGI [23]: > 300 µM; TGI [24]: > 300 µM; TGI [25]: > 131 µM; TGI [26]: > 300 µM; TGI [27]: > 300 µM; TGI [28]: > 300 µM; TGI [29]: > 300 µM; TGI [30]: > 300 µM; TGI [31]: > 300 µM; TGI [32]: > 300 µM; TGI [33]: > 300 µM; TGI [34]: > 300 µM; TGI [35]: > 300 µM; TGI [36]: > 300 µM; TGI [37]: > 139 µM; TGI [38]: > 300 µM; TGI [39]: > 300 µM; TGI [40]: > 300 µM; TGI [41]: > 193 µM; TGI [42]: > 300 µM; TGI [43]: > 300 µM; TGI [44]: > 300 µM; TGI [45]: > 288 µM; TGI [46]: > 300 µM; TGI [47]: > 300 µM; TGI [48]: > 300 µM; TGI [49]: > 300 µM; TGI [50]: > 300 µM; TGI [51]: > 178 µM; TGI [52]: > 300 µM; TGI [53]: > 300 µM; TGI [54]: > 300 µM; TGI [55]: > 300 µM; TGI [56]: > 300 µM; TGI [57]: > 300 µM

From PubChem BioAssay (NCI)
